Experimental data from ChEMBL document CHEMBL1201862, “PubChem BioAssay data set” (2004).
Activity calls are given as the source filed them.

What was measured:
[1] = cytotoxicity toward NIH3T3 fibroblasts, dose response, counter-screen, cell-based, ATP luminescence, mouse fibroblasts (AID 2010); format: functional;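 also: cells exposed to compound for about 90 hours before reading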
[2] = target: Sphingosine 1-phosphate receptor 1 (Homo sapiens, UniProt P21453); format: functional;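 also: Tango beta-arrestin reporter U2OS cells stimulated with S1P near its EC80; inhibitor potency meaning antagonism of receptor activation by the natural agonist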
[3] = inhibitors of intracellular T. cruzi replication, confirmation, NIH3T3 host cells, beta-gal luminescence (AID 2044); format: functional, cell-based;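 also: intracellular parasites grown in NIH/3T3 mouse fibroblasts as host cells; luminescent beta-galactosidase reporter signal from transgenic T. cruzi replicating inside host cells; inhibitors lower the luminescence signal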
Paired box protein Pax-8 = Paired box protein Pax-8 (Homo sapiens, UniProt Q06710); assay: inhibitors of PAX8-driven TPO luciferase reporter, dose response, RMG-I cells, cherry-pick (AID 687027); format: functional, cell-based;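 also: luciferase reporter driven by Pax8 target thyroperoxidase promoter measured by SteadyGlo luminescence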
[4] = A549 cell cytotoxicity, dose response, cytotoxicity control, plate reader, cherry-pick, antagonist series (AID 743412); format: functional, cell-based
[5] = target: T1, Microphthalmia-associated transcription factor (Homo sapiens, UniProt O75030); assay: TRPM1 promoter luciferase signal decrease, dose response, MITF inhibitor project, cell-based, SK-MEL-5, cherry-picked, set 3 (AID 493073); format: functional
T1 sequence (O75030 whole entry): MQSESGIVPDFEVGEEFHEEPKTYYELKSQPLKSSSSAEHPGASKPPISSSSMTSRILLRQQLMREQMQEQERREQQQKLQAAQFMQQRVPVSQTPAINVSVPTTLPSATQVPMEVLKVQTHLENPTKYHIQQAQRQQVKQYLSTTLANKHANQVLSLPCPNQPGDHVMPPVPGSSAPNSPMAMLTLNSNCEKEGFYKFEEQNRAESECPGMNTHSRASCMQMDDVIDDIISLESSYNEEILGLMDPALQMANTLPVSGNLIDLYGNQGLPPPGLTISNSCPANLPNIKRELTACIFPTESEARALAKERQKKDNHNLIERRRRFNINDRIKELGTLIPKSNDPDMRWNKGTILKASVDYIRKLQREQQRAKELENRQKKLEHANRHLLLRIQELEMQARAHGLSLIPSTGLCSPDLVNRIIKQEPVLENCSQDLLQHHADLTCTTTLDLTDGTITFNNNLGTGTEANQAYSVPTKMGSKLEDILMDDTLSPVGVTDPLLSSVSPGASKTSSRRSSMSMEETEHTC

[6] = MC4R antagonists, dose response, counter-screen for LGR2 antagonist project, cell-based, plate reader, cherry pick (AID 743444); format: functional;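 also: transfected HEK 293 cells stimulated with alpha-MSH peptide; potency of inhibitors of the alpha-MSH evoked signal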
[7] = HEK293 cell cytotoxicity, dose response, cytotoxicity control, plate reader, cherry-picked samples (AID 743446); format: functional, cell-based
[8] = inhibitors of PGC1a acetylation in cells, dose response, cell-based, cherry-picked samples (AID 720514); format: functional;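 also: potency may reflect raised or lowered acetylation signal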
[9] = LGR2 antagonists, dose response, cell-based, HEK293, CRE-luciferase reporter, cherry pick, set 2 (AID 743343); format: functional;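 also: transfected cells were stimulated with diluted bursicon conditioned medium after compound addition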
[10] = target: Sphingosine 1-phosphate receptor 4 (Homo sapiens, UniProt O95977); assay: Fluorescence dose response cell-based high throughput screening assay for antagonists of the Sphingosine 1-Phosphate Receptor 4 (S1P4). [Related pubchem assays: 1524 (Confirmation in triplicates.), 1510 (Primary screen.)]; format: functional
[11] = HepG2 cell cytotoxicity, dose response, cytotoxicity control, plate reader, cherry-pick, antagonist series (AID 743416); format: functional, cell-based
NS3 = NS3 (Hepatitis C virus, UniProt A3EZJ3); assay: PubChem AID 2173; design: species or system Hepacivirus hominis
[12] = target: T2, Corticotropin-releasing factor receptor 2/Corticotropin-releasing factor-binding protein (Homo sapiens, UniProt P24387+Q13324); assay: activators of CRF receptor 2 with binding protein – uHTS hits, confirmation (AID 602473); format: functional; settings: read-out: EC50_Mean
T2 sequence (Q13324 whole entry): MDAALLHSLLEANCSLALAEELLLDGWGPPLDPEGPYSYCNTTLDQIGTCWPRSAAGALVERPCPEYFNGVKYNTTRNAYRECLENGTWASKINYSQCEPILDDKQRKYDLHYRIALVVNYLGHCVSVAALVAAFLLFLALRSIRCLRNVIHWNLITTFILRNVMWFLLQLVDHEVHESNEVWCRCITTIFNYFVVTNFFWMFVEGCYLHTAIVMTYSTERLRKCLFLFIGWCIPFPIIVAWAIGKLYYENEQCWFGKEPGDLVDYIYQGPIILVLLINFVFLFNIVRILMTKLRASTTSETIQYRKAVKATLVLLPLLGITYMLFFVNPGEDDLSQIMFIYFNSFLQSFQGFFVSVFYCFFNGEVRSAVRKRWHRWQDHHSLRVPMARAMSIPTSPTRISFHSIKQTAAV
T2 sequence (P24387 whole entry): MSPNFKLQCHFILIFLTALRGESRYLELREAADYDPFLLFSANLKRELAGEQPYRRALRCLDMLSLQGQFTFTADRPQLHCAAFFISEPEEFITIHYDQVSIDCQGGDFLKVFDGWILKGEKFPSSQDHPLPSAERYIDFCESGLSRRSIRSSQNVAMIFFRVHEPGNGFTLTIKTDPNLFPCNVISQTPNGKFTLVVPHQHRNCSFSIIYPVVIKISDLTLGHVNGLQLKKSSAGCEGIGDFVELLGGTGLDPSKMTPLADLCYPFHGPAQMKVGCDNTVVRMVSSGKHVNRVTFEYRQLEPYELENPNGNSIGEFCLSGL

[13] = target: T3, Heat shock factor protein 1 (Mus musculus, UniProt P38532); assay: HSF1 potentiators in luciferase reporter cells, confirmation, cell-based, NIH3T3, luminescence, dose retest (AID 435004); format: functional;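 also: stress induced by proteasome inhibitor MG132 added 30 min after compound; luciferase reporter driven by HSF1 response element in NIH3T3 cells; actives raise luminescence as potentiators of the MG132 stress response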
T3 sequence (P38532 whole entry): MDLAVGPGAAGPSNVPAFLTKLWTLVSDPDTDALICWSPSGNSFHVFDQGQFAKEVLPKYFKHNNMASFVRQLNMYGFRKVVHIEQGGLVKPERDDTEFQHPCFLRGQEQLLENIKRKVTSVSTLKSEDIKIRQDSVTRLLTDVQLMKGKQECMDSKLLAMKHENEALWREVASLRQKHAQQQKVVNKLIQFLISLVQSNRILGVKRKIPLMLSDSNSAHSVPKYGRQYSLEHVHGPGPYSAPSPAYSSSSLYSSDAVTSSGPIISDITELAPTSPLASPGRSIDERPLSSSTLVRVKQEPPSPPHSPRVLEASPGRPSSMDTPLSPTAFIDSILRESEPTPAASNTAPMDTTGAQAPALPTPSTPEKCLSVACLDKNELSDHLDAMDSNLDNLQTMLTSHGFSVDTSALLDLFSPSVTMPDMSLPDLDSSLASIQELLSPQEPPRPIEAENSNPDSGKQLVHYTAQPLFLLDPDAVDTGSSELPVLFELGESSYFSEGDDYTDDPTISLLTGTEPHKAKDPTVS

CHO = assay: cytotoxicity in TLR9-MyD88 CHO cells, dose response, cytotoxicity control for TLR9-MyD88 binding inhibitor project, cell-based, luminescence (AID 588339); format: functional, hamster; settings: Cricetulus griseus;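 also: CHO cells stably coexpressing TLR9 and MyD88 fusions from primary screen; compound exposure lasted 48 hours before viability readout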
[14] = target: T4, Type-1 angiotensin II receptor (Homo sapiens, UniProt P30556); assay: AT1 receptor antagonists, dose response, selectivity assay for APJ receptor antagonist project, cell-based, uHTS hits (AID 463214); format: functional;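 also: antagonist potency against angiotensin II stimulated AT1 response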
T4 sequence (P30556 whole entry): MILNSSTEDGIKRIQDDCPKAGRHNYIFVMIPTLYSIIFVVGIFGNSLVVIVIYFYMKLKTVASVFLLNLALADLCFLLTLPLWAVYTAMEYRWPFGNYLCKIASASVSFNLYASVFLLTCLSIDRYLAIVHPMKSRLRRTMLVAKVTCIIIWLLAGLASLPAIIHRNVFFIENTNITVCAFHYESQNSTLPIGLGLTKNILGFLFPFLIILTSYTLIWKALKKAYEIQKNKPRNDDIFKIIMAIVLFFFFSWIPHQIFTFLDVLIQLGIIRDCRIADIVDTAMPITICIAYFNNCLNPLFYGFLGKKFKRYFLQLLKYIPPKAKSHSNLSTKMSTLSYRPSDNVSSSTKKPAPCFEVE

[15] = target: T5, Replicative DNA helicase DnaB (Mycobacterium tuberculosis, UniProt P9WMR3); assay: DnaB intein splicing inhibitors, dose response, biochemical, cell-free fluorescence (AID 449749); format: functional
T5 sequence (P9WMR3 whole entry): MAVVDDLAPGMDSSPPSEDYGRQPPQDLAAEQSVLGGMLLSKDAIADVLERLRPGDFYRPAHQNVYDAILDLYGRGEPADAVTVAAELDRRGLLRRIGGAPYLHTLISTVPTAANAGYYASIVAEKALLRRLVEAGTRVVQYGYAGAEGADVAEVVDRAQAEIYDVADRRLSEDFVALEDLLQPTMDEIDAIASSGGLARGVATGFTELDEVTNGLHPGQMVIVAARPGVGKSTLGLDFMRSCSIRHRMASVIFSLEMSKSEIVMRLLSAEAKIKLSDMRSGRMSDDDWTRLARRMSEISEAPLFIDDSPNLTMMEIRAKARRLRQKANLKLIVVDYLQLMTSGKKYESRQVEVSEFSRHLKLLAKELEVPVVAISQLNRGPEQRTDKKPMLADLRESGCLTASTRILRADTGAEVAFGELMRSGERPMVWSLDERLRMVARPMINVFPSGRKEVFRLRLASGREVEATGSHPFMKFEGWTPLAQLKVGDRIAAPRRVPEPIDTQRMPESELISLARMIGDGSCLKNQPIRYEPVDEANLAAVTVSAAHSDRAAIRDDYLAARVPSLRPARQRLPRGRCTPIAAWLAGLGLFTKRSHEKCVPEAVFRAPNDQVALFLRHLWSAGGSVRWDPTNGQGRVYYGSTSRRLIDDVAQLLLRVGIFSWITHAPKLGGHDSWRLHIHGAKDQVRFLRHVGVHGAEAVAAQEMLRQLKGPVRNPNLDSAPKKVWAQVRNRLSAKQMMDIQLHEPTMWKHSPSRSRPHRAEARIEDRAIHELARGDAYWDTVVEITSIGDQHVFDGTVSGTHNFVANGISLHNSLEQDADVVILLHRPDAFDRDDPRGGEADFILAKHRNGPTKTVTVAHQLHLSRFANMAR

Beta-galactosidase [16] = target: T6, Beta-galactosidase (Escherichia coli, UniProt Q8VNN2); format: functional
[17] = target: T7, Kappa-type opioid receptor (Homo sapiens, UniProt P41145); format: functional
Protein RecA = target: T8, Protein RecA (Mycobacterium tuberculosis, UniProt P9WHJ3); assay: Fluorescence Cell-Free Homogeneous Dose Retest to Identify Inhibitors of RecA-Intein Splicing Activity. [Related pubchem assays (depositor defined):AID2097, AID2223, AID489010, AID492950]; format: functional
T8 sequence (P9WHJ3 whole entry): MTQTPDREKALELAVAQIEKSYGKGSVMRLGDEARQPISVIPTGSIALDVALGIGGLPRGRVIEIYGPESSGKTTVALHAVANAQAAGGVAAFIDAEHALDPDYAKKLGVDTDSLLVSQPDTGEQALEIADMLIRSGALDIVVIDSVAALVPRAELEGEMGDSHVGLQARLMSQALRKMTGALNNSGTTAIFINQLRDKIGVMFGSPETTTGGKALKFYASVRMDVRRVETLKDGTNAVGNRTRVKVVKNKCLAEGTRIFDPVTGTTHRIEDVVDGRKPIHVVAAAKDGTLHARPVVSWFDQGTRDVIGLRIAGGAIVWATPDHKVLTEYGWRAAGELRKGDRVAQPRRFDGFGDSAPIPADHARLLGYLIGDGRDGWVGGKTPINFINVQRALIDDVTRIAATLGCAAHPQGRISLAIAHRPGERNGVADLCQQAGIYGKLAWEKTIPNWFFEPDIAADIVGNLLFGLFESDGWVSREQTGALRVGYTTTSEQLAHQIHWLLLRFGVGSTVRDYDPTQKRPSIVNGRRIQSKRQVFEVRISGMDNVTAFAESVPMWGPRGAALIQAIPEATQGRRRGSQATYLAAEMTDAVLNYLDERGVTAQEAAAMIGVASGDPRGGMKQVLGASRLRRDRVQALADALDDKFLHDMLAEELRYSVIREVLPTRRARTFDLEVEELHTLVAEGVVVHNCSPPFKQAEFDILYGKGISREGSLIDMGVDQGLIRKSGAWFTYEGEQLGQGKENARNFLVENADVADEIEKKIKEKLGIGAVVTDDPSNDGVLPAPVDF

[18] = HEK293T cytotoxicity, dose response, cytotoxicity control for miR-122 modulator project, cell-based, activator set, cherry-pick (AID 720690); format: functional;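 also: HEK293T human cells scored for general mammalian cytotoxicity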
INS1 = assay: beta cell apoptosis inhibitors, cytokine rescue, dose response, luminescence, retest (AID 449756); format: functional, cell-based; settings: Rattus norvegicus;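 also: cell death triggered by IL-1 beta plus TNF-alpha plus IFN-gamma mixture; protective hits raise ATP signal compared with cytokine alone wells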
[19] = miR-122 activators in hepatoma reporter cells, dose response, cell-based, Huh7 psiCHECK-miR122, Renilla luciferase, cherry-picked (AID 651956); format: functional;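 also: huh7 hepatoma cells stably carrying a psiCHECK-2 miR-122 sensor plasmid; renilla luciferase signal reporting endogenous miR-122 activity after 48 h compound exposure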
Beta Lactamase = Beta Lactamase (Pseudomonas aeruginosa, UniProt Q932Y6); assay: beta-lactamase reporter inhibitor potency, dose response, artefact control for TLR9-MyD88 binding inhibitor project, BLA reporter cells, FRET fluorescence (AID 588341); format: cell-based;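 also: cell based assay in CHO-K1 cells stably expressing beta-lactamase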
[20] = HEK293T cytotoxicity, dose response, cytotoxicity control for miR-122 modulator project, cell-based, inhibitor set, cherry-pick, set 2 (AID 720697); format: functional
Beta-galactosidase [21] = target: T6, Beta-galactosidase; assay: PubChem AID 485352; format: functional
[22] = target: T7, Kappa-type opioid receptor; format: functional; remark: listed apart in the source

T7 sequence (P41145 whole entry): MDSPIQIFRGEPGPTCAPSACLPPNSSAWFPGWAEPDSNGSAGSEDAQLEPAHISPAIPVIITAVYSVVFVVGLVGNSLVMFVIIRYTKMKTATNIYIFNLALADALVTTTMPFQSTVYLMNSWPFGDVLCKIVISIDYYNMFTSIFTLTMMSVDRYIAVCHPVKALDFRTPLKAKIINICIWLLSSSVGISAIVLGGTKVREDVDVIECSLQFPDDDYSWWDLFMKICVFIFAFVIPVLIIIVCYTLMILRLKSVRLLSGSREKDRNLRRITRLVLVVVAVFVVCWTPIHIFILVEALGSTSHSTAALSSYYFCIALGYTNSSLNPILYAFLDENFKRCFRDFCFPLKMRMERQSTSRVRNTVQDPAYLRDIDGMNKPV
Chain of Sphingosine 1-phosphate receptor 1 (P21453 whole entry): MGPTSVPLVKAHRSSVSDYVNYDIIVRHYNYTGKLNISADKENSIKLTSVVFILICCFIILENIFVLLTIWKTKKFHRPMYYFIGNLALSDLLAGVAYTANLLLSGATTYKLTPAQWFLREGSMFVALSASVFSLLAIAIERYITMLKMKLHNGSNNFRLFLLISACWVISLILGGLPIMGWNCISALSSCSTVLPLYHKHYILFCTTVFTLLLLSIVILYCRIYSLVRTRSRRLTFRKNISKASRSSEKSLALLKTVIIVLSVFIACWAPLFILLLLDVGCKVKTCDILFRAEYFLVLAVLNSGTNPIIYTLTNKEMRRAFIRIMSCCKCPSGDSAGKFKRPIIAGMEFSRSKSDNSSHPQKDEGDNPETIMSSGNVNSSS
T6 sequence (Q8VNN2 whole entry): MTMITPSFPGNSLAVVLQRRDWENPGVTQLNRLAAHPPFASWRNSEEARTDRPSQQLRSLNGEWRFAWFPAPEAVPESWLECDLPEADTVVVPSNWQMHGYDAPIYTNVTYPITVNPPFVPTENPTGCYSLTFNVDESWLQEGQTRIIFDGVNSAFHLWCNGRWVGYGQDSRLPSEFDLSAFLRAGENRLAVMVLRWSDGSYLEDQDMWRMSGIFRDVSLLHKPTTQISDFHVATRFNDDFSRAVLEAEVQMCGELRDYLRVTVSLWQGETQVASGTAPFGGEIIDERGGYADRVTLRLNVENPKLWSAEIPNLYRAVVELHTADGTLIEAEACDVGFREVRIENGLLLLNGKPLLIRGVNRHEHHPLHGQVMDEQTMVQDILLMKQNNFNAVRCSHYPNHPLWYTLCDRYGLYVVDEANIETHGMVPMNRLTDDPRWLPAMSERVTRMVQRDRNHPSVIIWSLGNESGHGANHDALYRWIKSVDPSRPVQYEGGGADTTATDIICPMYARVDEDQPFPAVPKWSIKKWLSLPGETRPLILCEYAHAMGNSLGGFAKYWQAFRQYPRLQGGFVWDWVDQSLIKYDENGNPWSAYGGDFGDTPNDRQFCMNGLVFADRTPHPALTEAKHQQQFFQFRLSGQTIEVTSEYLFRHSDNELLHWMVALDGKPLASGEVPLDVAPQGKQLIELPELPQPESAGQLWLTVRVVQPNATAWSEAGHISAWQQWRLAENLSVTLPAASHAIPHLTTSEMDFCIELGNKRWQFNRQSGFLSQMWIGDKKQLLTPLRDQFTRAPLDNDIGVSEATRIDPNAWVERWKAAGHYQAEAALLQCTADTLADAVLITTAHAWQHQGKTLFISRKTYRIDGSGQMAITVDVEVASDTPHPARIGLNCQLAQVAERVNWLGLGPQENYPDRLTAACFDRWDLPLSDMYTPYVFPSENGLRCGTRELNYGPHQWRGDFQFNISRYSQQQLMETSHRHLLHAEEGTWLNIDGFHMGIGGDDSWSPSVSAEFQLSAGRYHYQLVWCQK
Chain of Sphingosine 1-phosphate receptor 4 (O95977 whole entry): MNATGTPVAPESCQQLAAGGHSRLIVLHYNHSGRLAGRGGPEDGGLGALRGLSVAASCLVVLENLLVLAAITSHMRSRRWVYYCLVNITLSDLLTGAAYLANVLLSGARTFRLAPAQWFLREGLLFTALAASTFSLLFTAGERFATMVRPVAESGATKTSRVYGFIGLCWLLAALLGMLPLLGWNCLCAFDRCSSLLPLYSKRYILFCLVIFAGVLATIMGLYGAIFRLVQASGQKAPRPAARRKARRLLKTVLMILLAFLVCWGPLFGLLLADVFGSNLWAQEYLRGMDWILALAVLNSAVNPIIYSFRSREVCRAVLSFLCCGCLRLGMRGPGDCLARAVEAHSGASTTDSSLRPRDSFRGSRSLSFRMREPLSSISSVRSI
Chain of NS3 (A3EZJ3 whole entry): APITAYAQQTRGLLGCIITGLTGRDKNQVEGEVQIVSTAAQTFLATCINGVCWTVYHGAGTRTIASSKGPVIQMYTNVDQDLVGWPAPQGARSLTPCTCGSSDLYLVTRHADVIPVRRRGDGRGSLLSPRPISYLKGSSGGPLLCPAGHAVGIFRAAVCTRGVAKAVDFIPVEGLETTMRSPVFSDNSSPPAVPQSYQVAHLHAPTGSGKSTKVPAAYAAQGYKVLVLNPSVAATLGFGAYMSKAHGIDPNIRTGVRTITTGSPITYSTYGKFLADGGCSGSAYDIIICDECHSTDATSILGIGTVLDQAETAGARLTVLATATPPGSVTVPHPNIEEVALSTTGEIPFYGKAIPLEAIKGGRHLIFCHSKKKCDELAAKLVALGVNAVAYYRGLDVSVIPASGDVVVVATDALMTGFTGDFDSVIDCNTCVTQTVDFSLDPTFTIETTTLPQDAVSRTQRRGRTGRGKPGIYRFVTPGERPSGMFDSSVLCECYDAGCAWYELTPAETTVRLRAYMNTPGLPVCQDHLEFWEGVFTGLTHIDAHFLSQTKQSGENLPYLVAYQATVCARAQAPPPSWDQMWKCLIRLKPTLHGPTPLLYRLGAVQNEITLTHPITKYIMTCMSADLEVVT
Chain of Beta Lactamase (Q932Y6 whole entry): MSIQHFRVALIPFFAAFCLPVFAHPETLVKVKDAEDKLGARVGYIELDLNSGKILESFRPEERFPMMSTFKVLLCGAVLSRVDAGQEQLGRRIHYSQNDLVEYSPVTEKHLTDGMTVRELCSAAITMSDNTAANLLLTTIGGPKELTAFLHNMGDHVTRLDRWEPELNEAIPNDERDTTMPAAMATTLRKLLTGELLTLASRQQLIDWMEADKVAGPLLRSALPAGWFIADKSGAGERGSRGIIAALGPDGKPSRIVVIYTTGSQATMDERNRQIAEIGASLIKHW
Chain of Paired box protein Pax-8 (Q06710 whole entry): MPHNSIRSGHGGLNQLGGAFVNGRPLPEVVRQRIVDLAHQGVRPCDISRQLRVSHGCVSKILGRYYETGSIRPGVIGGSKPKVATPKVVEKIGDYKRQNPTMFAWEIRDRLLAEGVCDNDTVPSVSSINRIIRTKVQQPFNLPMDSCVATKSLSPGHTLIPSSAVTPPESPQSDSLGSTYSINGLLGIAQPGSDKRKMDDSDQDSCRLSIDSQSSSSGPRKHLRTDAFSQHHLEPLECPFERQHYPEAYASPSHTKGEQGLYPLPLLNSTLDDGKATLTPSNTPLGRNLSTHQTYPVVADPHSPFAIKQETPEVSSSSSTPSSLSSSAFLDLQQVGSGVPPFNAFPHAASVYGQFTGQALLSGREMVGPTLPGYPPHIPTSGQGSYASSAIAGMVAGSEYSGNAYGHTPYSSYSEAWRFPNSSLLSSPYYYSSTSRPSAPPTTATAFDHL

## O=C1CN(C(=O)Cn2ncc(Cl)c(Cl)c2=O)c2ccccc2N1
[1]
  EC50: 2.61 µM (active)
[2]
  IC50: 13.6 µM (not active)
[3]
  EC50: 2.11 µM (active)
Paired box protein Pax-8
  AC50: 2.19 µM (active)
[4]
  AC50: 11.8 µM (active)
[5]
  AC50: 8.67 µM (active)
[6]
  AC50: 15.4 µM (active)
[7]
  AC50: 8.59 µM (active)
[8]
  AC50: 4.16 µM (active)
[9]
  AC50: 18.7 µM (active)
[10]
  IC50: 3.18 µM (active)
[11]
  AC50: 25.6 µM (active)

## Cc1cccc(N2C(=O)C(O)=C(C(=O)c3cccs3)C2c2ccc(C(C)C)cc2)n1 (stereo unspecified)
NS3
  IC50: 5.88 µM (active)
[12]
  EC50: 11.3 µM (active)
[13]
  EC50: > 260 µM (inactive)

## CCn1c(Cl)c(C=O)s/c1=N\S(=O)(=O)c1ccccc1
[2]
  IC50: 7.5 µM (active)
CHO
  IC50: 0.952 µM (active)
[14]
  IC50: 2.24 µM (active)
[15]
  AC50: 18.2 µM (active)
Beta-galactosidase [16]
  EC50: > 31.5 µM (inactive)
[17]
  IC50: 11.8 µM (active)
Protein RecA
  EC50: 1.3 µM (active)
[13]
  EC50: > 260 µM (inconclusive)
[18]
  AC50: 3.2 µM (active)
INS1
  AC50: 5.12 µM (active)
[19]
  AC50: 7.8 µM (active)
Beta Lactamase
  IC50: 12.5 µM (inactive)
[10]
  IC50: 1.48 µM (active)
[20]
  AC50: 1.84 µM (active)
Beta-galactosidase [21]
  EC50: > 40 µM (inactive)
[22]
  IC50: 4.85 µM
